The values below come from patent publication US20080096807A1, “Cyclic vasoactive intestinal peptide receptor-2 agonists” (priority 2006, published 2008).

Bridge positions count the residues as written; N and C are the ends. Square brackets hold non-standard residues; d marks the D form. Peptide text beside a SMILES is read from it. ξ: configuration not given here. Thr(3ξ) = CC(O)[C@H](N)C(=O)O; αMeV = CC(C)[C@](C)(N)C(=O)O; Nle = CCCC[C@H](N)C(=O)O

Series [1] has as its target T1, human neutrophil elastase (Homo sapiens, UniProt P08246).
T1 sequence (P08246 30-247 limits assumed): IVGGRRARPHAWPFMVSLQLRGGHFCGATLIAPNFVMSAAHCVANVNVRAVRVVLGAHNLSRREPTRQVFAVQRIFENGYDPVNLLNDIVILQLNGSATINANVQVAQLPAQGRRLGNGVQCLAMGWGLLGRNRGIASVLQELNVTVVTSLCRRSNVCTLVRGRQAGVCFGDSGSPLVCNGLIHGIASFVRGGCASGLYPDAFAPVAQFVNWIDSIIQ
Description: Peptide stability to neutrophil elastase (RP HPLC ESI MS). Conditions: halftime with human neutrophil elastase 1 to 2 μg/mL in PBS, ambient temperature, normalized to halftime of the reference standard.
Description: The proteolytic stabilities of peptide analogs were established with reversed phase high pressure liquid chromatography (RP HPLC) electrospray ionization mass spectrometry (ESI MS). Peptide analogs were incubated with human neutrophile elastase and the quantity of undigested analogs was determined by ESI MS at appropriate time points. Multiple peptide analogs could be included in one experiment as long as they could be differentiated by HPLC retention time and/or by molecular weight. Ac-His Ac-[sequence]Nle-[sequence]NH2 was used in all experiments as a control and as a reference standard. The simultaneous use of multiple peptide analogs together with a reference standard allowed for compensation for variations in the proteolytic fidelity of the enzyme over the multiple experiments. Integrated ion currents obtained for the individual undigested peptide were used for quantitation. For calculation of halftime first-order kinetic behavior was assumed and all calculations were normalized to the halftime of the reference standard.
Peptide stock solutions were prepared in water to a concentration of 2.5 mg/mL. Unless in use, all stock solutions were kept at −20° C. […] Concentrations of the peptide analogs were adjusted accordingly. In order to do the proteolytic digestion, peptides were dissolved in phosphate buffered saline (PBS) to a concentration of 0.1 mg/mL. As many as six different peptide analogs were mixed into one 50 μL reaction volume. The reference standard was added to all experiments as a reference and internal standard. Elastase (Human Neutrophil, Calbiochem, Cat # 324681) was added from an elastase stock solution to a concentration of 1 to 2 μg/mL. Different amounts of the enzyme were chosen to compensate for the differences in the proteolytic stabilities of the peptide analogs. Previously, a stock solution of elastase was prepared in water at a concentration of 1 mg/mL. Small aliquots of the enzyme stock solution were kept at −20° C. to better maintain the enzyme activity by limiting the number of thaw and freeze cycles.
The digestion was done at ambient temperature in an autosampler tube within the autosampler of the HPLC system (Agilent 1100 Series). For a time course, 5 μL aliquots were injected in 70 minute intervals onto the reversed phase HPLC column (Phenomenex, Luna C18, 3μ, 100 ↑, 150×2.00 mm). For the starting time point an aliquot was injected just prior to the addition of the proteolytic enzyme. A total of eight time points could be recorded from one experiment, including the starting point. Peptides were separated on the reversed phase column with a 50 minute gradient of 5% to 30% organic phase. The aqueous phase was 0.05% (v/v) of trifluoroacetic acid in water and the organic one was 0.045% (v/v) of trifluoroacetic acid in acetonitrile. Absorbances were recorded at 214 and 280 nm respectively. All of the column effluent was introduced into the turbo V source of the electrospray ionization mass spectrometer (ABI 4000 QTrap LC/MS/MS System). Mass spectra were acquired in Q3MS mode in a mass range to include all triply charged ions of the non degraded peptide analogs. Care was taken to assure that peptide analogs could clearly be differentiated either by the chromatographic retention time or by the difference in molecular weight. Relative quantities of the respective undigested peptide analog were calculated from the integrated total ion current. A window of 2.5 Da was chosen and the manufacturer's software was used to integrate the individual ion currents. The overall halftime of an individual peptide analog was calculated by assuming first-order kinetic behavior and was normalized with respect to the halftime of the reference standard.

Another series has as its target T2, VPAC2 receptor (Homo sapiens, UniProt P41587).
T2 construct: The human T-lymphoid cell line Sup-Ti, which expresses the VPAC2 receptor; host or cells: Sup-T1 (Sup-Ti [sic]) human T-lymphoid cell line
T2 sequence (P41587 24-438): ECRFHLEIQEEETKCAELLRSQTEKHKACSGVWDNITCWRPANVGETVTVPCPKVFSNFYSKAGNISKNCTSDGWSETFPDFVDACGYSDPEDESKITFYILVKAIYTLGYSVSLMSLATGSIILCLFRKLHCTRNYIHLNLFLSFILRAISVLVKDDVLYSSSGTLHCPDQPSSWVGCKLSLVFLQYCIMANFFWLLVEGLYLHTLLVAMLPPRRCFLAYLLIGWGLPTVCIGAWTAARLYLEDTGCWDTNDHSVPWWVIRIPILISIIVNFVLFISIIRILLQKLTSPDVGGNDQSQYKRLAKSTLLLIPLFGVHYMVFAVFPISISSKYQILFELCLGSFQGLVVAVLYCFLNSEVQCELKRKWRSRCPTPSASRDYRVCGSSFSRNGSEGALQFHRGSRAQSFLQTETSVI
Description: Sup-T1 cAMP agonist assay. The series is classed as cell-based. Conditions: human T-lymphoid cell line Sup-T1 expressing VPAC2 receptor; cAMP EIA; 5 min at room temperature; read-out: Sup-T1 cAMP EC50. The gist of the method: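 Sup-T1 human T-lymphoid cells with endogenous VPAC2 (RPMI 1640, 25 mM HEPES, 10% FBS) were plated at 4×10^4 cells/well and exposed to compound for 5 min at room temperature. After lysis, cAMP was measured by enzyme immunoassay. EC50 came from a sigmoidal fit of 7-concentration dose-response data.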

Series [2] relates to methacholine-induced bronchospasm in mice. The series is described as follows: Methacholine-induced bronchospasm in mice (whole body plethysmography, Penh). Conditions: balb/c mice; drug by aerosol for 20 minutes before spasmogen challenge; relative to vehicle. The series is classed as in vivo. How it is done:
Respiratory function is measured in conscious, freely moving mice using whole body plethysmographs (WBP) from BUXCO Electronics, Inc. (Troy, N.Y.). WBP chambers allow animals to move freely within the chamber while respiratory function is measured. Eight chambers are used simultaneously so that eight mice can be measured at the same time. Each WBP chamber is connected to a bias flow regulator to supply a smooth, constant flow of fresh air during testing. A transducer attached to each chamber detects pressure changes that occur as the animal breathes. Pressure signals are amplified by a MAX II Strain Gauge preamplifier and analyzed by the Biosystem XA software supplied with the system (BUXCO Electronics, Inc.). Pressure changes within each chamber are calibrated prior to testing by injecting exactly 1 ml of air through the injection port and adjusting the computer signal accordingly. Mice are placed in the WBP chambers and allowed to acclimate for 10 minutes prior to testing. Testing is conducted by letting the animals move and breathe freely for 15 minutes while the following parameters are measured: Tidal Volume (ml), Respiratory Rate (breaths per minutes), Minute Volume (tidal volume multiplied by respiratory rate, ml/min), Inspiratory Time (sec), Expiratory Time (sec), Peak Inspiratory Flow (ml/sec), and Peak Expiratory Flow (ml/sec). Raw data for each of the parameters listed above are captured in the software database and averaged once per minute to give a total of 15 data points per parameter. The average of the 15 data points is reported. Accumulated Volume (ml) is a cumulative value (not averaged) and represents the sum of all tidal volumes for the 15-minute test session. The protocol is customized to include measurements before, during, and after a spasmogen challenge to determine Penh. Dose-response effects of a particular spasmogen (i.e. methacholine (MCh), acetylcholine, etc.) are obtained by giving nebulized aerosol (30-60 sec exposure) at approximately 5-10 min intervals. Mice (balb/c) are treated with vehicle (2% DMSO in H2O) or drug dissolved in 4 ml vehicle for 20 minutes by aerosol, as described above, prior to spasmogen challenge. Penh is determined at 5, 30 and 60 minutes post-challenge. Data are reported as percent inhibition of Penh relative to vehicle.

In series [3] the test system is LPS-induced lung inflammation in male C57BL/6 mice. The series is described as follows: LPS-induced lung inflammation in male C57BL/6 mice (BAL neutrophilia). The series is classed as in vivo. Particulars: Dose 0.01%, BAL fluid neutrophilia. The method, then: C57bl/6 mice are pretreated with vehicle or drug prior to an aerosol expose to lipopolysacchride (LPS, 500 μg/ml in sterile saline) for 15-30 minutes. The aerosol is generated by a Pari Ultra neb jet nebulizer, the outlet of which is connected to a small clear plastic chamber [H×W×D, 10.7×25.7×11 cm (4×10×4.5 in)] containing the animals. Bronchoalveolar lavage (BAL) is performed 24 hr later to determine the intensity of cell inflammation. BAL procedure is performed as described below.
Mice are pretreated with vehicle or drug prior to an intranasal administration of lipopolysacchride (0.05-0.3 mg/kg in sterile saline; 50 μl total volume, 25 μl/nostril). Intranasal administration is performed by presenting small droplets of the dosing solution at the nostril using a 25-50 μl eppendorff pipet. BAL is performed 3 to 24 h post LPS challenged as described above to determine the intensity of cell inflammation.
24 h following LPS exposure, animals are anesthetized with pentobarbital (80-100 mg/kg, i.p.), ketamine/xyzaline (80-120 mg/kg/2-4 mg/kg, i.p.) or urethane (1.5-2.4 g/kg, i.p.); and through a small midline neck incision (15-20 mm), the trachea is exposed and cannulated with 20-gauge tubing adapter. Lungs are lavaged with 2×1 ml sterile Hank's balanced salt solution without Ca++ and Mg++(HBSS). Lavage fluid is recovered after 30 sec by gentle aspiration and pooled for each animal. Samples are then centrifuged at 2000 rpm for 10 minutes at 5° C. Supernatant is aspirated, and red blood cells are lysed from the resulting pellet with 0.5 ml distilled water for 30 sec before restoring osmolarity to the remaining cells by the addition of 5 ml of HBSS. Samples are recentrifuged at 2000 rpm for 10 minutes at 5° C. and supernatant aspirated. The resulting pellet is resuspended in 1 ml of HBSS. Total cell number is determined by Trypan Blue (Sigma Chemical, St. Louis, Mo.) exclusion from an aliquot of cell suspension using a hemocytometer or coulter counter. For differential cell counts, an aliquot of the cell suspension is centrifuged in a Cytospin (5 min, 1300 rpm; Shandon Southern Instruments, Sewickley, Pa.) and the slides fixed and stained with a modified Wright's stain (Hema 3 stain kit, Fisher Scientific). Standard morphological criteria is used in classifying at least 300 cells under light microscopy. Data in Table 3 is expressed as BAL cells×10^4/animal for neutrophils and total cells, or percent inhibition of the LPS induced BAL fluid neutrophilia response.

On to `CCCC[C@H](NC(=O)[C@H](CCC(N)=O)NC(=O)[C@H](CCCCN)NC(=O)[C@H](CCCNC(=N)N)NC(=O)[C@H](CC(C)C)NC(=O)[C@H](CCCCN)NC(=O)[C@@H](NC(=O)[C@H](Cc1ccc(O)cc1)NC(=O)[C@H](CC(N)=O)NC(=O)[C@H](CCC(=O)O)NC(=O)[C@@H](NC(=O)[C@H](Cc1ccccc1)NC(=O)[C@@](C)(NC(=O)[C@H](C)NC(=O)[C@H](CC(=O)O)NC(=O)[C@H](CO)NC(=O)[C@H](Cc1c[nH]cn1)NC(C)=O)C(C)C)C(C)O)C(C)O)C(=O)N[C@@H](C)C(=O)N[C@@H](C)C(=O)N[C@@H](CCCCN)C(=O)N[C@H]1CCCCNC(=O)C[C@@H](C(=O)N[C@@H](CC(C)C)C(=O)N[C@@H](CCCCN)C(=O)N[C@@H](CCCCN)C(=O)NCC(=O)NCC(=O)N[C@H](C(N)=O)C(C)O)NC(=O)[C@H](CC(N)=O)NC(=O)[C@H](CC(C)C)NC(=O)[C@H](Cc2ccc(O)cc2)NC1=O` (stereo partly drawn) [Example 6] (Ac-HSDA[αMeV]F[Thr(3ξ)]ENY[Thr(3ξ)]KLRKQ[Nle]AAKKYLNDLKKGG[Thr(3ξ)]-NH2; lactam 21-25), for which the Relative elastase stability in series [1] is reported as 6. Also, the EC50 at VPAC2 receptor amounted to 2.35 nM. Further, the “Inhibition of Penh at 5 minutes post-challenge” value (shortened to “Inhibition of Penh”) in series [2] is reported as “++ (++ <50%)”. Further, in series [3], the “Inhibition of LPS-induced neutrophilia” value is listed as “++ (++ >30%)”.
For `CCCC[C@H](NC(=O)[C@H](CCC(N)=O)NC(=O)[C@H](CCCCN)NC(=O)[C@H](CCCNC(=N)N)NC(=O)[C@H](CC(C)C)NC(=O)[C@H](CCCCN)NC(=O)[C@@H](NC(=O)[C@H](Cc1ccc(O)cc1)NC(=O)[C@H](CC(N)=O)NC(=O)[C@H](CCC(=O)O)NC(=O)[C@@H](NC(=O)[C@H](Cc1ccccc1)NC(=O)[C@H](CO)NC(=O)[C@H](C)NC(=O)[C@H](CC(=O)O)NC(=O)[C@H](C)NC(=O)[C@H](Cc1c[nH]cn1)NC(C)=O)C(C)O)C(C)O)C(=O)N[C@@H](C)C(=O)N[C@@H](C)C(=O)N[C@@H](CCCCN)C(=O)N[C@H]1CCCCNC(=O)C[C@@H](C(=O)N[C@@H](CC(C)C)C(=O)N[C@@H](CCCCN)C(=O)N[C@@H](CCCCN)C(=O)NCC(=O)NCC(=O)N[C@H](C(N)=O)C(C)O)NC(=O)[C@H](CC(N)=O)NC(=O)[C@H](CC(C)C)NC(=O)[C@H](Cc2ccc(O)cc2)NC1=O` (stereo partly drawn) [Example 12] (Ac-HADASF[Thr(3ξ)]ENY[Thr(3ξ)]KLRKQ[Nle]AAKKYLNDLKKGG[Thr(3ξ)]-NH2; lactam 21-25), in that order: 5.2, 7.4 nM, “+ (+ >50%)” and “+ (+ 10-30%)”.
In turn, `CCCC[C@H](NC(=O)[C@H](CCCNC(=N)N)NC(=O)[C@H](CCCCN)NC(=O)[C@H](CCCNC(=N)N)NC(=O)[C@H](CC(C)C)NC(=O)[C@H](CCCCN)NC(=O)[C@@H](NC(=O)[C@H](Cc1ccc(O)cc1)NC(=O)[C@H](CC(N)=O)NC(=O)[C@H](CCC(=O)O)NC(=O)[C@@H](NC(=O)[C@H](Cc1ccccc1)NC(=O)[C@H](CO)NC(=O)[C@H](C)NC(=O)[C@H](CC(=O)O)NC(=O)[C@H](C)NC(=O)[C@H](Cc1c[nH]cn1)NC(C)=O)C(C)O)C(C)O)C(=O)N[C@@H](CCCCN)C(=O)N[C@@H](C)C(=O)N[C@@H](CCCCN)C(=O)N[C@H]1CCCCNC(=O)C[C@@H](C(=O)N[C@@H](CC(C)C)C(=O)N[C@@H](CCCCN)C(=O)N[C@@H](CCCCN)C(=O)NCC(=O)NCC(=O)N[C@H](C(N)=O)C(C)O)NC(=O)[C@H](CC(N)=O)NC(=O)[C@H](CC(C)C)NC(=O)[C@H](Cc2ccc(O)cc2)NC1=O` (stereo partly drawn) [Example 18] (Ac-HADASF[Thr(3ξ)]ENY[Thr(3ξ)]KLRKR[Nle]KAKKYLNDLKKGG[Thr(3ξ)]-NH2; lactam 21-25) came in with a Relative elastase stability in series [1] of 5.1. Further, the EC50 at VPAC2 receptor was found to be 276 nM. The “Inhibition of Penh” value in series [2] is “+ (+ >50%)”.
In series [1], `CCCC[C@H](NC(=O)[C@H](CCCNC(=N)N)NC(=O)[C@H](CCCCN)NC(=O)[C@H](CCCNC(=N)N)NC(=O)[C@H](CC(C)C)NC(=O)[C@H](CCCCN)NC(=O)[C@@H](NC(=O)[C@H](Cc1ccc(O)cc1)NC(=O)[C@H](CC(N)=O)NC(=O)[C@H](CCC(=O)O)NC(=O)[C@@H](NC(=O)[C@H](Cc1ccccc1)NC(=O)[C@H](CO)NC(=O)[C@H](C)NC(=O)[C@H](CC(=O)O)NC(=O)[C@H](CO)NC(=O)[C@H](Cc1c[nH]cn1)NC(C)=O)C(C)O)C(C)O)C(=O)N[C@@H](CCC(=O)O)C(=O)N[C@@H](C)C(=O)N[C@@H](CCCCN)C(=O)N[C@H]1CCCCNC(=O)C[C@@H](C(=O)N[C@@H](CC(C)C)C(=O)N[C@@H](CC(C)C)C(=O)N[C@@H](CCCCN)C(=O)NCC(=O)NCC(=O)N[C@H](C(N)=O)C(C)O)NC(=O)[C@H](CC(N)=O)NC(=O)[C@H](CC(C)C)NC(=O)[C@H](Cc2ccc(O)cc2)NC1=O` (stereo partly drawn) [Example 19] (Ac-HSDASF[Thr(3ξ)]ENY[Thr(3ξ)]KLRKR[Nle]EAKKYLNDLLKGG[Thr(3ξ)]-NH2; lactam 21-25) showed a Relative elastase stability of 3.3. Moreover, the concentration giving a half-maximal response (EC50) at VPAC2 receptor amounted to 68.4 nM. Further, the “Inhibition of Penh” value in series [2] is reported as “+ (+ >50%)”. In series [3], the “Inhibition of LPS-induced neutrophilia” value is “+ (+ 10-30%)”.
